Results published in PMC7508628, “Targeting the Respiratory Syncytial Virus N^0-P Complex with Constrained α-Helical Peptides in Cells and Mice” (Antimicrobial Agents and Chemotherapy, 2020).
Where a SMILES comes first, the peptide text is derived from it. Bridges are numbered along the chain shown (N, C = ends). [ ]: non-standard residue; d: D form. R8 = C=CCCCCCC[C@@](C)(N)C(=O)O; R5 = C=CCCC[C@@](C)(N)C(=O)O; S5 = C=CCCC[C@](C)(N)C(=O)O

Assays:
HEp-2 cells = test: HEp-2 cell viability (CellTiter-Glo luminescent cell viability assay); conditions: peptide alone at 50 μM; duplicates
Experimental: (B) HEp-2 cell viability upon treatment with peptides alone at peptide concentrations of 50, 25, and 12.5 μM. Error bars are standard deviations from duplicates. Data are representative of those from two independent experiments.
Cytotoxicity assays were done with the CellTiter-Glo luminescent cell viability assay (Promega). Each experiment was performed in duplicate and repeated at least twice.

rHRSV-mCherry = conditions: read-out: EC50 (half-maximal response inhibitory concentration), inhibition of RSV infection; HEp-2 cells, MOI 0.2, peptides added after 2 h infection, mCherry fluorescence at 48 h postinfection; duplicates
rHRSV-Luc = test: Mouse RSV infection model (rHRSV-Luc, bioluminescence, lung histology)
BALB/c mice = test: In vivo toxicity assessment in uninfected BALB/c mice
[1] = Circular dichroism spectroscopy, α-helical content; type: physicochemical; conditions: CD, 10 mM phosphate buffer pH 7.5, 50 μM peptide, 25°C, calculated from ellipticity at 222 nm; average of three measurements
Procedure, shortened: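 Peptides at 50 μM in 10 mM phosphate, pH 7.5, scanned 180–260 nm at 25 °C in a 0.5-mm cell, three scans averaged and buffer-subtracted. Percent helicity derived from per-residue molar ellipticity at 222 nm using a length-corrected 40,000 maximum.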

BSRT7/5 cells = test: Viability of BSRT7/5 cells transfected with the minigenome; conditions: 25 μM peptide
From the text: BSRT7/5 cells were transfected with plasmids pP, pN, pM2-1, pL, and pM/Luc, together with pRSV-β-Gal for transfection standardization. […] Error bars are standard deviations from duplicates. Data are representative of those from two independent experiments.
Briefly, the dicistronic RSV minigenome pM/Luc was cotransfected into BSRT7/5 cells expressing T7 RNA polymerase, together with plasmids pN, pP, pL, and pM2-1, resulting in the replication and transcription of the minigenome.

RSV = conditions: monthly injection during the peak season, at-risk infants; cited from earlier work
From the text: Respiratory syncytial virus (RSV) is very contagious and represents the main cause of severe acute respiratory tract illness in young children worldwide. […] A recent study performed by Pneumonia Etiology Research for Child Health ...

[2] = 2 dpi, one i.n. treatment 50 μl at 215 μM, 1 × 10^5 PFU rHRSV-Luc, n = 5
[3] = 4 dpi, i.n. treatment at day 0 and 2 dpi, n = 5, Mann-Whitney test

| Molecule | Toxicity for uninfected HEp-2 cells (cell viability) (HEp-2 cells) | EC50 (rHRSV-mCherry) [µM] | Reduction in the level of RSV replication in the noses versus untreated mice (rHRSV-Luc; [2]) [fold] | Whole luminescence signal versus untreated infected mice (rHRSV-Luc; [2]) | Intensity of interstitial pneumonia (lung histology) (rHRSV-Luc; 4 dpi, HES staining, versus RSV-infected PBS mice) | Animals with vascular and bronchial lesions (lung histology) (rHRSV-Luc; 4 dpi, HES staining, all 5 untreated infected animals showed lesions) | Amount of bioluminescence versus untreated control group (rHRSV-Luc; [3]) | Bioluminescence in the lungs versus untreated RSV-infected mice (rHRSV-Luc; [3]) | Body weight of RSV-infected treated animals (rHRSV-Luc; daily monitoring, i.n. treatment at day 0 and 2 dpi, n = 5) | Animals with focal lesions of the pulmonary parenchyma with infiltration by neutrophils (histology) (BALB/c mice; BALB/c mice n = 5, i.n. 50 μl at 215 μM at days 0 and 2, day 4, HES staining) | Macroscopic lung examination (BALB/c mice; BALB/c mice n = 5, i.n. 50 μl at 215 μM at days 0 and 2, lungs collected at day 4) | Body weight monitoring, signs of toxicity (BALB/c mice; BALB/c mice n = 5, i.n. 50 μl at 215 μM in PBS at days 0 and 2, days 0 to 4) | % helicity [1] [%] | Cell mortality of minigenome-transfected BSRT7/5 cells (BSRT7/5 cells) [%] | Efficacy of prophylactic treatment (RSV) |
| --- | --- | --- | --- | --- | --- | --- | --- | --- | --- | --- | --- | --- | --- | --- | --- |
| CC[C@H](C)[C@H](NC(=O)[C@]1(C)CCCC=CCCCCCC[C@@](C)(NC(=O)[C@H](CCC(=O)O)NC(=O)[C@H](CC(N)=O)NC(=O)[C@H](C)NC(=O)[C@]2(C)CCCC=CCCC[C@@](C)(NC(=O)[C@H](Cc3ccccc3)NC(=O)[C@H](CCC(=O)O)NC(C)=O)C(=O)NCC(=O)N[C@@H](CCC(=O)O)C(=O)N2)C(=O)N[C@@H](C)C(=O)N[C@@H]([C@@H](C)O)C(=O)N[C@@H](CCCCN)C(=O)N[C@@H](Cc2ccccc2)C(=O)N[C@@H](CC(C)C)C(=O)N[C@@H](CCC(=O)O)C(=O)N1)C(=O)N[C@@H](CCCCN)C(=O)N[C@@H](CCCCN)C(=O)N[C@@H](CCCCN)C(=O)N[C@@H](Cc1ccccc1)C(=O)N[C@@H](C)C(=O)N[C@@H](CO)C(N)=O [5a] (Ac-EF[R5]GE[S5]ANE[R8]ATKFLE[S5]IKKKFAS-NH2; staple 3-6, 10-17) | no toxicity | 18.4 ± 9.3 | 2 | no significant difference | decreased | 2 out of 5 | significant reduction | significantly reduced | statistically nonsignificant loss of weight | 3 of the 5 | no macroscopic sign of toxicity | did not reveal any signs of toxicity | >100 | – | – |
| CC[C@H](C)[C@H](NC(=O)[C@]1(C)CCCC=CCCCCCC[C@@](C)(NC(=O)[C@H](CCC(=O)O)NC(=O)[C@H](CC(N)=O)NC(=O)[C@H](C)NC(=O)[C@]2(C)CCCC=CCCC[C@@](C)(NC(=O)[C@H](Cc3ccccc3)NC(=O)[C@H](CCC(=O)O)NC(C)=O)C(=O)NCC(=O)N[C@@H](CCCCN)C(=O)N2)C(=O)N[C@@H](C)C(=O)N[C@@H]([C@@H](C)O)C(=O)N[C@@H](CCCCN)C(=O)N[C@@H](Cc2ccccc2)C(=O)N[C@@H](CC(C)C)C(=O)N[C@@H](CCC(=O)O)C(=O)N1)C(=O)N[C@@H](CCCCN)C(=O)NCC(=O)N[C@@H](CCCCN)C(=O)N[C@@H](Cc1ccccc1)C(=O)N[C@@H](C)C(=O)N[C@@H](CO)C(N)=O [5d] (Ac-EF[R5]GK[S5]ANE[R8]ATKFLE[S5]IKGKFAS-NH2; staple 3-6, 10-17) | some toxicity | 6 ± 4.2 | – | – | – | – | – | – | – | – | – | – | 75.7 | 40 | – |
| palivizumab: monoclonal antibody administered monthly as an injectable for RSV prophylaxis | – | – | – | – | – | – | – | – | – | – | – | – | – | – | approximately 50% |
